According to patent US9044485B2, “Ceftolozane antibiotic compositions” (priority 2013, dated 2015):

Columns and labels:
[1] = Intrinsic pH of ceftolozane in solution; assay type: physicochemical; conditions: in solution (2%)
P. aeruginosa = assay: Minimum inhibitory concentration (MIC90); assay type: cell-based; conditions: Pseudomonas aeruginosa
Enterobacteriaceae = assay: In vitro activity against Gram-positive and Gram-negative bacteria (surveillance data); assay type: cell-based; conditions: against Acinetobacter spp. and common species of Enterobacteriaceae
Method: The in vitro activity of ceftolozane and ceftolozane/tazobactam was evaluated against a broad range of Gram-positive and Gram-negative bacteria.

| SMILES | intrinsic pH [1] | MIC90 (P. aeruginosa) [µg/mL] | effect on in vitro activity of ceftolozane (in words) (Enterobacteriaceae) |
| --- | --- | --- | --- |
| Cn1c(N)c(NC(=O)NCCN)c[n+]1CC1=C(C(=O)O)N2C(=O)[C@@H](NC(=O)/C(=N\OC(C)(C)C(=O)O)c3nsc(N)n3)[C@H]2SC1 [ceftolozane, (6R,7R)-3-[(5-amino-4-{[(2-aminoethyl)carbamoyl]amino}-1-methyl-1H-pyrazol-2-ium-2-yl)methyl]-7-({(2Z)-2-(5-amino-1,2,4-thiadiazol-3-yl)-2-[(1-carboxy-1-methylethoxy)imino]acetyl}amino)-8-oxo-5-thia-1-azabicyclo[4.2.0]oct-2-ene-2-carboxylate] | 1.92 | ≤ 2 | – |
| C[C@]1(Cn2ccnn2)[C@H](C(=O)O)N2C(=O)C[C@H]2S1(=O)=O [tazobactam, (2S,3S,5R)-3-methyl-7-oxo-3-(1H-1,2,3-triazol-1-ylmethyl)-4-thia-1-azabicyclo[3.2.0]heptane-2-carboxylic acid 4,4-dioxide] | – | – | potentiated the activity of ceftolozane |
